Laboratory results from patent US10294202B2, “Pyrrolidinones as herbicides” (FMC Corporation, priority 2013, dated 2019).

How the values were obtained:
[1] = test system: barnyardgrass; test: Test A pre-/postemergence herbicide test; assay type: in vivo, Echinochloa crus-galli
In short: (§1)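 Directed soil spray to seeded pots (preemergence) or spray onto one- to two-leaf seedlings 2–10 cm tall (postemergence); loam/sand substrate throughout. Evaluated visually after about 10 days against untreated plants, 0 = no effect, 100 = complete control.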

[2] = test system: rice; test: Test B flooded paddy test; assay type: in vivo, Oryza sativa; conditions: Flood, scale of 0 to 100 where 0 is no effect and 100 is complete control
In short: (§2)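 Visual ratings from 0, meaning no effect, up to 100, meaning complete control, were made by comparison with untreated controls 13 to 15 days after treatment. Test compounds went straight into floodwater standing 3 cm over the soil of pots holding 2-leaf seedlings.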

[3] = test system: wheat; test: Test A pre-/postemergence herbicide test; assay type: in vivo, Triticum aestivum
In short: as §1

[4] = test system: corn; test: Test A pre-/postemergence herbicide test; assay type: in vivo, Zea mays
In short: as §1

[5] = test system: giant foxtail; test: Test A pre-/postemergence herbicide test; assay type: in vivo, Setaria faberii
In short: as §1

[6] = test system: pigweed; test: Test A pre-/postemergence herbicide test; assay type: in vivo, Amaranthus retroflexus
In short: as §1

[7] = test system: sedge, umbrella; test: Test B flooded paddy test; assay type: in vivo, Cyperus difformis; conditions: Flood, scale of 0 to 100 where 0 is no effect and 100 is complete control
In short: as §2

[8] = test system: ducksalad; test: Test B flooded paddy test; assay type: in vivo, Heteranthera limosa; conditions: Flood, scale of 0 to 100 where 0 is no effect and 100 is complete control
In short: as §2

[9] = test system: morningglory; test: Test A pre-/postemergence herbicide test; assay type: in vivo, Ipomoea spp.
In short: as §1

[10] = test system: barnyardgrass; test: Test B flooded paddy test; assay type: in vivo, Echinochloa crus-galli; conditions: Flood, scale of 0 to 100 where 0 is no effect and 100 is complete control
In short: as §2

[11] = test system: crabgrass, large; test: Test A pre-/postemergence herbicide test; assay type: in vivo, Digitaria sanguinalis
In short: as §1

[12] = test system: velvetleaf; test: Test A pre-/postemergence herbicide test; assay type: in vivo, Abutilon theophrasti
In short: as §1

[13] = Postemergence, 125 g ai/ha, 0 to 100 scale, 0 is no effect, 100 is complete control
[14] = Postemergence, 500 g ai/ha, 0 to 100 scale (0 no effect, 100 complete control)
[15] = Preemergence, 125 g ai/ha, 0 to 100 scale where 0 is no effect and 100 is complete control
[16] = preemergence, 500 g ai/ha, 0 to 100 scale, 0 is no effect and 100 is complete control
[17] = Postemergence, 125 g ai/ha, visual rating on 0 to 100 scale (0 no effect, 100 complete control), approx. 10 days
[18] = Postemergence, 1000 g ai/ha, 0 to 100 scale (0 no effect, 100 complete control)
[19] = preemergence, 1000 g ai/ha, 0 to 100 scale (0 no effect, 100 complete control)
[20] = preemergence, 1000 g ai/ha, 0 to 100 scale
[21] = Preemergence, 1000 g ai/ha, visual rating on 0 to 100 scale (0 no effect, 100 complete control), approx. 10 days

O=C1NCC(c2ccc(Cl)c(C(F)(F)F)c2)C1C(=O)Nc1ccccc1C(F)(F)F (racemic) [Compound 269]
70: Plant response rating, Barnyardgrass [1, 14] | Plant response rating, Barnyardgrass [1, 15] | Plant response rating, Foxtail, Giant [5, 13] | Plant response rating, Pigweed [6, 17] | Plant response rating, Pigweed [6, 16]
90: Plant response rating, Crabgrass, Large [11, 16]
0: Plant response rating, Rice ([2]; 1000 g ai/ha) | Plant response rating, Wheat [3, 17] | Plant response rating, Wheat [3, 14] | Plant response rating, Wheat [3, 15] | Plant response rating, Wheat [3, 16] | Plant response rating, Corn [4, 13] | Plant response rating, Corn [4, 15] | Plant response rating, Corn [4, 16] | Plant response rating, Sedge, Umbrella ([7]; 1000 g ai/ha) | Plant response rating, Morningglory [9, 17] | Plant response rating, Morningglory [9, 14] | Plant response rating, Morningglory [9, 15] | Plant response rating, Morningglory [9, 16] | Plant response rating, Barnyardgrass ([10]; 1000 g ai/ha) | Plant response rating, Velvetleaf [12, 15] | Plant response rating, Velvetleaf [12, 16]
80: Plant response rating, Barnyardgrass [1, 16] | Plant response rating, Foxtail, Giant [5, 14] | Plant response rating, Foxtail, Giant [5, 15] | Plant response rating, Foxtail, Giant [5, 16] | Plant response rating, Crabgrass, Large [11, 14] | Plant response rating, Crabgrass, Large [11, 15]
50: Plant response rating, Barnyardgrass [1, 13] | Plant response rating, Pigweed [6, 15]
100: Plant response rating, Ducksalad ([8]; 1000 g ai/ha)
20: Plant response rating, Corn [4, 14]
60: Plant response rating, Pigweed [6, 14] | Plant response rating, Crabgrass, Large [11, 13]

O=C1NCC(c2ccc(F)c(F)c2)C1C(=O)Nc1cccnc1F (racemic) [Compound 105]
10: Plant response rating, Rice ([2]; 1000 g ai/ha) | Plant response rating, Morningglory [9, 18] | Plant response rating, Velvetleaf [12, 18]
0: Plant response rating, Wheat [3, 18] | Plant response rating, Wheat [3, 20] | Plant response rating, Corn [4, 18] | Plant response rating, Corn [4, 20] | Plant response rating, Pigweed [6, 18] | Plant response rating, Pigweed [6, 20] | Plant response rating, Sedge, Umbrella ([7]; 1000 g ai/ha) | Plant response rating, Morningglory [9, 20] | Plant response rating, Velvetleaf [12, 20]
80: Plant response rating, Foxtail, Giant [5, 18]
90: Plant response rating, Barnyardgrass [1, 18] | Plant response rating, Barnyardgrass [1, 19] | Plant response rating, Foxtail, Giant [5, 20] | Plant response rating, Ducksalad ([8]; 1000 g ai/ha) | Plant response rating, Crabgrass, Large [11, 18] | Plant response rating, Crabgrass, Large [11, 20]
25: Plant response rating, Barnyardgrass ([10]; 1000 g ai/ha)

O=C1NCC(c2ccc(F)c(F)c2)C1C(=O)Nc1cccc(Cl)c1F (racemic) [Compound 104]
0: Plant response rating, Rice ([2]; 1000 g ai/ha) | Plant response rating, Wheat [3, 18] | Plant response rating, Corn [4, 18] | Plant response rating, Pigweed [6, 18] | Plant response rating, Pigweed [6, 21] | Plant response rating, Sedge, Umbrella ([7]; 1000 g ai/ha) | Plant response rating, Morningglory [9, 18] | Plant response rating, Morningglory [9, 21] | Plant response rating, Velvetleaf [12, 21]
80: Plant response rating, Barnyardgrass [1, 18] | Plant response rating, Barnyardgrass [1, 21] | Plant response rating, Crabgrass, Large [11, 18]
95: Plant response rating, Ducksalad ([8]; 1000 g ai/ha)
70: Plant response rating, Foxtail, Giant [5, 18] | Plant response rating, Barnyardgrass ([10]; 1000 g ai/ha)
90: Plant response rating, Foxtail, Giant [5, 21] | Plant response rating, Crabgrass, Large [11, 21]
10: Plant response rating, Velvetleaf [12, 18]
20: Plant response rating, Wheat [3, 21] | Plant response rating, Corn [4, 21]

CON(C(=O)C1C(=O)NCC1c1ccc(F)c(F)c1)c1ccccc1[N+](=O)[O-] (stereo not shown) [Compound 243]
80: Plant response rating, Barnyardgrass [1, 19]
0: Plant response rating, Rice ([2]; 250 g ai/ha) | Plant response rating, Wheat [3, 18] | Plant response rating, Wheat [3, 20] | Plant response rating, Corn [4, 18] | Plant response rating, Corn [4, 20] | Plant response rating, Pigweed [6, 18] | Plant response rating, Pigweed [6, 20] | Plant response rating, Sedge, Umbrella ([7]; 250 g ai/ha) | Plant response rating, Ducksalad ([8]; 250 g ai/ha) | Plant response rating, Morningglory [9, 18] | Plant response rating, Morningglory [9, 20] | Plant response rating, Barnyardgrass ([10]; 250 g ai/ha) | Plant response rating, Crabgrass, Large [11, 18] | Plant response rating, Velvetleaf [12, 18] | Plant response rating, Velvetleaf [12, 20]
60: Plant response rating, Barnyardgrass [1, 18]
20: Plant response rating, Foxtail, Giant [5, 18]
90: Plant response rating, Foxtail, Giant [5, 20] | Plant response rating, Crabgrass, Large [11, 20]
